Data: US11214594B2, “Antimicrobial peptide having synergistic antibacterial effect with antibiotics on multidrug resistant bacteria, and use thereof” (priority 2016, dated 2022)
Where a SMILES comes first, the peptide text is derived from it.

Assays:
MDRPA 2002 = format: cell-based, Pseudomonas aeruginosa
In short: (§1)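 Peptides were serially diluted twofold in Mueller-Hinton medium and combined 1:1 with bacterial suspensions prepared at 2×10^6 CFU. Readout was the minimal inhibitory concentration, i.e. the lowest concentration with no growth.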

MDRPA 2003 = format: cell-based, Pseudomonas aeruginosa
In short: as §1

MDRAB 12035 = experiment: MIC of antibiotic during combined treatment with antimicrobial peptide; format: cell-based, Acinetobacter baumannii
Description: (§2) Specifically, the strains described in [Table 2] were prepared and diluted with an MH medium such that the number of bacteria was 2×10^6 colony-forming units (CFUs) per 1 ml, 100 μl of the diluted strains was each aliquoted into a 96-well microtiter plate, and then 50 μl of a peptide solution diluted with the MH medium from the MIC value (solution diluted stepwise at 2: 1) was added to each well. Thereafter, the MIC value of each mixed solution was determined by diluting the antibiotic solution with the MH medium, adding 50 μl of the diluted solution to each well, and performing an experiment even under a reversed condition.

S. typhimurium = experiment: microbe, parasite or virus in culture; format: cell-based, Salmonella typhimurium
In short: as §1

MRSA 3114 = format: cell-based, Staphylococcus aureus; settings: 3114
In short: as §1

MRSA 3126 = format: cell-based, Staphylococcus aureus; settings: 3126
In short: as §1

MDRAB 12036 = format: cell-based, Acinetobacter baumannii
In short: as §1

MDREC 1229 = experiment: MIC of antibiotic during combined treatment with antimicrobial peptide; format: cell-based, Escherichia coli
Description: as §2

MDRST 8007 = experiment: Minimal inhibitory concentration (MIC), single agent; format: cell-based, Salmonella typhimurium; settings: agent alone
In short: as §1

MDREC 1238 = format: cell-based, Escherichia coli
In short: as §1

[1] = peptide treatment concentration 1 μg/ml
[2] = peptide treatment concentration 2 μg/ml
[3] = peptide treatment concentration 4 μg/ml
[4] = peptide treatment concentration 6 μg/ml
[5] = peptide treatment concentration 8 μg/ml
[6] = peptide treatment concentration 16 μg/ml
[7] = peptide treatment concentration 32 μg/ml
[8] = peptide treatment concentration 64 μg/ml

CC[C@H](C)[C@H](NC(=O)[C@H](CCCCN)NC(=O)[C@H](Cc1c[nH]c2ccccc12)NC(=O)[C@@H](N)CCCNC(=N)N)C(=O)N[C@@H](Cc1ccccc1)C(=O)N[C@@H](CCCCN)C(=O)N[C@@H](CCCCN)C(=O)N[C@H](C(=O)N1CCC[C@H]1C(=O)N[C@@H](CCCCN)C(=O)N[C@@H](CC(C)C)C(=O)N[C@@H](CC(C)C)C(=O)N[C@@H](Cc1c[nH]cn1)C(=O)N[C@@H](CO)C(=O)N[C@@H](CC(C)C)C(=O)N[C@@H](CCCCN)C(=O)N[C@@H](CCCCN)C(=O)N[C@@H](Cc1c[nH]c2ccccc12)C(N)=O)[C@@H](C)CC [PapMA-10, RWK IFK KIP KLL HSL KKW-NH2] (H-RWKIFKKIPKLLHSLKKW-NH2; N-terminus assumed)
0.25 µg/mL: Antibiotic MIC, Erythromycin (MDREC 1229; [7])
128 µg/mL: Antibiotic MIC, Linezolid (MDREC 1229; [3]) | Antibiotic MIC, Vancomycin (MDREC 1229; [5])
>128 µg/mL: Linezolid MIC during combined treatment with peptide (MDRAB 12035; [1]) | Vancomycin MIC during combined treatment with peptide (MDRAB 12035; [1]) | Linezolid MIC during combined treatment with peptide (MDRAB 12035; [2]) | Vancomycin MIC during combined treatment with peptide (MDRAB 12035; [2]) | Minimal inhibitory concentration MIC (MRSA 3114) | Minimal inhibitory concentration MIC (MRSA 3126) | Antibiotic MIC, Erythromycin (MDREC 1229; [1]) | Antibiotic MIC, Linezolid (MDREC 1229; [1]) | Antibiotic MIC, Vancomycin (MDREC 1229; [1]) | Antibiotic MIC, Linezolid (MDREC 1229; [2]) | Antibiotic MIC, Vancomycin (MDREC 1229; [2]) | Antibiotic MIC, Vancomycin (MDREC 1229; [3]) | Antibiotic MIC, Vancomycin (MDREC 1229; [4])
4 µg/mL: Erythromycin MIC during combined treatment with peptide (MDRAB 12035; [6]) | Vancomycin MIC during combined treatment with peptide (MDRAB 12035; [6]) | Vancomycin MIC during combined treatment with peptide (MDRAB 12035; [7])
8 µg/mL: Minimal inhibitory concentration MIC (MDRPA 2002) | Erythromycin MIC during combined treatment with peptide (MDRAB 12035; [4]) | Erythromycin MIC during combined treatment with peptide (MDRAB 12035; [5]) | Linezolid MIC during combined treatment with peptide (MDRAB 12035; [6]) | Antibiotic MIC, Erythromycin (MDREC 1229; [4]) | Antibiotic MIC, Linezolid (MDREC 1229; [7])
0 µg/mL: Erythromycin MIC during combined treatment with peptide (MDRAB 12035; [7]) | Erythromycin MIC during combined treatment with peptide (MDRAB 12035; [8]) | Linezolid MIC during combined treatment with peptide (MDRAB 12035; [8]) | Vancomycin MIC during combined treatment with peptide (MDRAB 12035; [8]) | Antibiotic MIC, Erythromycin (MDREC 1229; [8]) | Antibiotic MIC, Linezolid (MDREC 1229; [8]) | Antibiotic MIC, Vancomycin (MDREC 1229; [8])
1 µg/mL: Antibiotic MIC, Erythromycin (MDREC 1229; [6])
64 µg/mL: Linezolid MIC during combined treatment with peptide (MDRAB 12035; [3]) | Vancomycin MIC during combined treatment with peptide (MDRAB 12035; [3]) | Antibiotic MIC, Erythromycin (MDREC 1229; [2]) | Antibiotic MIC, Linezolid (MDREC 1229; [4]) | Antibiotic MIC, Linezolid (MDREC 1229; [5]) | Minimal inhibitory concentration MIC (MDREC 1238)
2 µg/mL: Linezolid MIC during combined treatment with peptide (MDRAB 12035; [7]) | Antibiotic MIC, Erythromycin (MDREC 1229; [5])
32 µg/mL: Erythromycin MIC during combined treatment with peptide (MDRAB 12035; [1]) | Erythromycin MIC during combined treatment with peptide (MDRAB 12035; [2]) | Linezolid MIC during combined treatment with peptide (MDRAB 12035; [4]) | Vancomycin MIC during combined treatment with peptide (MDRAB 12035; [4]) | Minimal inhibitory concentration MIC (MDRAB 12036) | Antibiotic MIC, Vancomycin (MDREC 1229; [6]) | Minimal inhibitory concentration MIC (MDRST 8007)
16 µg/mL: Minimal inhibitory concentration MIC (MDRPA 2003) | Erythromycin MIC during combined treatment with peptide (MDRAB 12035; [3]) | Linezolid MIC during combined treatment with peptide (MDRAB 12035; [5]) | Vancomycin MIC during combined treatment with peptide (MDRAB 12035; [5]) | Minimal inhibitory concentration MIC (S. typhimurium) | Antibiotic MIC, Erythromycin (MDREC 1229; [3]) | Antibiotic MIC, Linezolid (MDREC 1229; [6]) | Antibiotic MIC, Vancomycin (MDREC 1229; [7])
